These are literature values, as cited in US20240082270A1 (priority 2021, published 2024).

Each structure is given as a SMILES string. Read-outs that look alike come from different tables or passages of the source.

The conditions of data set [1]: animal studies.
The conditions of data set [2]: dog, 2 weeks of high twice daily dosing.
In data set [3] the test system is methicillin resistant Staphylococcus aureus (MRSA).
The conditions of data set [4]: rat, in vivo.
For data set [5] the following is noted: mouse, in vivo.
A further data set concerns mouse bladder. The settings on record: induced by acetylcholine.
The conditions of data set [6]: mouse, in vivo. The source holds these as a separate data set.

For the compound `CCCCCc1cc(O)c(C/C=C(\C)CCC=C(C)C)c(O)c1` [CBG, cannabigerol], the “time of peak brain concentrations” value in data set [1] is 2 h. Further, the “adverse effects monitored by blood testing” value in [2] is recorded as “no adverse effects”. Moreover, in data set [3] (MRSA), the “efficacy in murine systemic infection model” value is reported as “demonstrate in vivo efficacy”. Also, the MRSA biofilm formation entry in data set [3] (mouse, in vivo) is recorded as “represses MRSA biofilm formation”. Moreover, the appetite entry in data set [4] is listed as “increased appetite”. Also, the acetylcholine-induced contractions entry in the data set with human bladder is reported as “reduce acetylcholine-induced contractions”. In [5], the rotarod performance result is on record as “significantly recovered their rotarod performance”. Also, the “ranked potency of detrusor contraction inhibition” value with mouse bladder is “CBG=THCV>CBD>CBDV, but not CBC”. The bioavailability was 13-19% (oral ingestion), 13-56% (sublingual administration) and 5-10% (topical applications). Also, the “effect on hyperthermia-induced seizures” value in data set [6] is “Neither CBG nor CBGV affected thresholds”.
